In one test the test system is BT-20. Kind of test: MTT cytotoxicity assay, BT-20. Format: cell-based. Particulars: Homo sapiens, mean ± SEM of three independent experiments in triplicate, read-out: IC50 Breast Cancer BT-20. As to the method: (§1) A panel of cancer cell lines, including breast (MDA-MB-231, BT20), brain (U251), and colon (HCT116), as well as a normal cell line (human mammary epithelial cells: HMECs), were grown as adherent monolayers in flasks with Dulbecco’s Modified Eagle Medium (DMEM), supplemented with 10% fetal bovine serum (FBS) and 1% penicillin and streptomycin in a humidified incubator with 5% CO2 at 37 °C.
(§2) The (3-(4,5-dimethylthiazol-2-yl)-2,5-diphenyltetrazolium bromide) (MTT) assay was used to determine the cytotoxicity of the 15 chrysin derivatives in the above-mentioned cell lines. Briefly, cells were harvested with 0.05% trypsin, 2.21 mM ethylenediaminetetraacetic acid (EDTA), 1× from Corning (Corning, NY, USA), and suspended at a final density of 5 × 10^3 cells/well. Cells were seeded (180 μL/well) into 96-well plates. Initially, four different concentrations of each compound were added to find the compounds with the greatest antiproliferative efficacy in the MDA-MB-231 cell line (0, 1, 10, and 100 μM). Subsequently, […] different concentrations […] of each compound were added to the remaining cell lines mentioned above. After 68 h of incubation, 20 μL of the MTT solution (4 mg/mL) were added to each well, and the plates were incubated for 4 h. This allowed viable cells to biotransform the yellow-colored MTT into dark-blue formazan crystals. Subsequently, the medium was discarded, and 150 μL of DMSO were added to each well to dissolve the formazan crystals. The absorbance was determined at 590 nm using a DTX 880 multimode detector (Beckman Coulter life sciences, IN, USA). The IC50 ± SD concentrations were calculated from three experiments performed in triplicate/duplicate. The IC50 values were calculated from the cell survival percentages obtained for each compound tested at different concentrations. Similarly, the cytotoxicity of the test compounds was compared to the normal cell line (HMEC).
Background: Tetrazolium assays rely on reduction of a dye to a coloured formazan, in cell work by metabolically active cells.

The next test relates to U-251. Briefly: MTT cytotoxicity assay, U-251. The note with it: Homo sapiens, mean ± SEM of three independent experiments in triplicate, read-out: IC50 Brain Cancer U-251. It is filed as cell-based. As to the method: as §1, §2
For test [1], the system named is MDA-MB-231 cells. Kind of test: MTT cytotoxicity assay, MDA-MB-231. Format: cell-based, human. The note with it: Homo sapiens; MDA-MB-231, MTT, mean ± SD of two independent experiments in triplicate; read-out: IC50 (cell survival). On the procedure:
The synthesized chrysin derivatives were evaluated for cytotoxic efficacy in the human breast cancer cell line, MDA-MB-231, using the 3-(4,5-dimethylthiazol-2yl)-2,5-diphenyltetrazolium bromide (MTT) colorimetric assay and doxorubicin was used as a reference anticancer drug.
as §1
as §2, with “The IC50 ± SD concentrations were calculated from three experiments performed in triplicate/duplicate.” left out

Test [2] has as its system MDA-MB-231 cells. Briefly: Western blot of apoptotic proteins (Bak, cytochrome c, caspase-7, caspase-9, mTOR). It is filed as cell-based, human. Particulars: for cleavage of the initiator caspase, caspase 9 / expression of cytochrome c / caspase 7 activation: compared to vehicle; for mTOR expression: 5 or 10 µM; for expression of Bak: compared to cells incubated in the absence of lead compounds. As to the method: To measure the expression of Bak, cytochrome c, caspase-7, caspase-9, and mTOR, Western blotting was performed by lysing MDA-MB-231 cells using a lysis buffer (50 mM Tris–HCl, 150 mM NaCl, 1 mM EDTA, 0.5% NP-40, 1% Triton, 0.1% SDS) containing a protease inhibitor cocktail that consisted of Aprotinin, Bestatin, E-64, Leupeptin, and Pepstatin A (Sigma-Aldrich Life Science, St. Louis, MO, USA). The bicinchoninic acid (BCA) quantification assay was used to determine the protein levels in the cell extracts (G-BIOSCIENCES, St. Louis, MO, USA). The extracted proteins were loaded onto a 10–20% tris-glycine gel. After separation, the proteins were transferred from the gel onto a polyvinylidene difluoride (PVDF) membrane. The membranes were blocked using 5% milk in Tris-buffered saline Tween 20 for 30 min and incubated overnight with primary antibodies against Bak (1:1000), cytochrome C (1:1000), caspase-3 (1:1000), caspase 7 (1:1000), caspase 9 (1:1000), mTOR (1:1000), or B-actin (1:2000) in 5% BSA (bovine serum albumin) at 4 °C. The next day, membranes were washed and incubated with horseradish peroxidase-labelled (HRP) anti-rabbit secondary antibody (1:5000 dilutions). The membrane was incubated with the antibody for an additional 1 h. Subsequently, the membranes were washed and developed by Clarity Western ECL substrate (Bio-Rad; Hercules, CA, USA). Protein was detected using a ChemiDoc Imaging System (Bio-Rad). Densitometry analyses of the blots for the detected protein were quantified using the ImageJ software. Data was calculated as ratios of protein/β-actin.

Structures are written as SMILES.

`O=C(COc1cc(O)c2c(=O)cc(-c3ccccc3)oc2c1)N/N=C/c1ccc(O)cc1O` [Compound 4g, (E,Z)-N’-(2,4-Dihydroxybenzylidene)-2-((5-hydroxy-4-oxo-2-phenyl-4H-chromen-7-yl)oxy)acetohydrazide]: the IC50 (usually the concentration that gives 50% inhibition) with BT-20 was 5.32 ± 0.72 µM. The concentration for half-maximal inhibition (IC50) in the test with U-251 turned out to be 7.64 ± 0.11 µM. In addition, the IC50 with MDA-MB-231 cells [1] is 5.98 ± 2.25 µM. In addition, in the test with MDA-MB-231 cells [2] (5 µM), the “cleavage of the initiator caspase, caspase 9” value is listed as “significant cleavage” and the “expression of cytochrome c” value is “significant increase”. For the same compound, in the test on MDA-MB-231 cells [2], the mTOR expression result is recorded as “no significant change” and the “expression of Bak” value is reported as “increase”. Moreover, in the test with MDA-MB-231 cells [2] (both concentrations (5 and 10 µM)), the “caspase 7 activation” value is “activated caspase 7”.
Regarding `O=C(COc1cc(O)c2c(=O)cc(-c3ccccc3)oc2c1)N/N=C/c1ccc(O)c(O)c1O` [Compound 4i, (E,Z)-2-((5-Hydroxy-4-oxo-2-phenyl-4H-chromen-7-yl)oxy)-N’-(2,3,4-trihydroxybenzylidene)acetohydrazide], in the test with BT-20, the IC50 is 10.4 ± 0.2 µM. Besides, the IC50 in the test with U-251 was determined as 25.4 ± 7.53 µM. For the same compound, in the test on MDA-MB-231 cells [1], the half-maximal inhibitory concentration (IC50) stood at 9.4 ± 1.45 µM. Also, in the test with MDA-MB-231 cells [2] (10 µM), the “caspase 7 activation” value was “activated caspase 7”; the “cleavage of the initiator caspase, caspase 9” value is reported as “significant cleavage”; the “expression of cytochrome c” value was “significant increase”. In the test on MDA-MB-231 cells [2], the mTOR expression result is reported as “no significant change” and the “expression of Bak” value is “increase”.

The values above are taken from article PMC7412250, “Novel Chrysin-De-Allyl PAC-1 Hybrid Analogues as Anticancer Compounds: Design, Synthesis, and Biological Evaluation” (Molecules, 2020).
